Experimental data reported in patent US20180250280A1 (BAYER PHARMA AKTIENGESELLSCHAFT, priority 2015, published 2018).

Experiments:
[1] = molecular target: T1, human factor XIa (Homo sapiens, UniProt P03951); assay: Measurement of FXIa inhibition (fluorogenic peptide substrate, AMC cleavage); format: biochemical; conditions: factor XIa from Kordia 0.45 nM; substrate Boc-Glu(OBzl)-Ala-Arg-AMC 10 μM; 30 min at 22° C.; in some cases averages from multiple determinations
T1 construct: purchased Kordia
T1 sequence (P03951 388-625 limits assumed): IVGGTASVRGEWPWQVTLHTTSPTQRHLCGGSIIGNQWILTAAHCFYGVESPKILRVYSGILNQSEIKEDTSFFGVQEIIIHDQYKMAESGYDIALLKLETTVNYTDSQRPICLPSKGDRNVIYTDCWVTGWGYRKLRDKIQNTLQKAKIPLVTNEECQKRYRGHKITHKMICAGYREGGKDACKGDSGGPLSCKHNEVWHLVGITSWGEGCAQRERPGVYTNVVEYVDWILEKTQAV
T1 sequence (P03951 19-387 partner limits assumed): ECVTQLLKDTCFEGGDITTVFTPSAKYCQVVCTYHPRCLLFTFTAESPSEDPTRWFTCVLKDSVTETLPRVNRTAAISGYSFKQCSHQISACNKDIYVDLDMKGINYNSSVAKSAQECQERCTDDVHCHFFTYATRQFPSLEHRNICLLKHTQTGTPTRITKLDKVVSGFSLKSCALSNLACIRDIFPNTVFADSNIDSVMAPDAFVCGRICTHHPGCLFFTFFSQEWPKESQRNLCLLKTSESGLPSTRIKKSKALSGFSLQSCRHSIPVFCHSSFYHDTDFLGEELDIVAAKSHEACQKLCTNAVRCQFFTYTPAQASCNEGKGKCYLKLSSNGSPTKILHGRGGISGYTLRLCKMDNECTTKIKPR

[2] = molecular target: T2, human plasma kallikrein (Homo sapiens, UniProt P03952); assay: Determination of the plasma kallikrein activity (fluorogenic peptide substrate, AMC cleavage); format: biochemical; conditions: plasma kallikrein from Kordia 0.6 nM; substrate H-Pro-Phe-Arg-AMC 10 μM; 30 min at 22° C.; in some cases averages from multiple determinations
T2 construct: purchased Kordia
T2 sequence (P03952 391-638 limits assumed): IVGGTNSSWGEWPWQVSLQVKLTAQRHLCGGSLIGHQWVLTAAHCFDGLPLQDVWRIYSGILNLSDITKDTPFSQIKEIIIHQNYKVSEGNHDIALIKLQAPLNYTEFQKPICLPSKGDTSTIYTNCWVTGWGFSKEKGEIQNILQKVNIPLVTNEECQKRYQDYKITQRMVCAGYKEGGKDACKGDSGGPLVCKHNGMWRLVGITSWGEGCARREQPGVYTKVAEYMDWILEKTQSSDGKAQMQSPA
T2 sequence (P03952 20-390 partner limits assumed): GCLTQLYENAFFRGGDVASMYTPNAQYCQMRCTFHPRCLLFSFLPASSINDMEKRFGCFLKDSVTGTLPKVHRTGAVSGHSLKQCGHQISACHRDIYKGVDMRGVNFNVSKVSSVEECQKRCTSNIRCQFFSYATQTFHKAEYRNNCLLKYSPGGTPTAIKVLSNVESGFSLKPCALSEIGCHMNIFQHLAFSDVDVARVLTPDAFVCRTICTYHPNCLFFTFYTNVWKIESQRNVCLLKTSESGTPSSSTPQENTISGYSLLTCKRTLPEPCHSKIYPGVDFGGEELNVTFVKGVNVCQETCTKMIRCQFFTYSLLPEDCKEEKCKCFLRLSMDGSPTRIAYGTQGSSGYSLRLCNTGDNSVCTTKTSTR
Method in brief: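 Kallikrein cleavage of H-Pro-Phe-Arg-AMC was followed by AMC fluorescence (ex 360, em 460) after 15 min enzyme–compound preincubation. IC50 was derived versus DMSO controls over final concentrations of 50 μM to 0.00013 μM.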

Row | Compound | IC50 [1] [nM] | IC50 [2] [nM]
1 | COc1cn(C(C[C@@H]2CCCCO2)C(=O)Nc2ccc(C(N)=O)nc2)c(=O)cc1-c1cc(Cl)ccc1OCC(F)(F)F (stereo partly drawn) [Example 54] | 3 | 90
2 | COc1cn(C(C[C@H](C)OC)C(=O)Nc2ccc(C(N)=O)nc2)c(=O)cc1-c1cc(Cl)ccc1OCC(F)(F)F (stereo partly drawn) [Example 56, 5-[[(4S)-2-[4-[5-Chloro-2-(2,2,2-trifluoroethoxy)phenyl]-5-methoxy-2-oxo-1-pyridyl]-4-methoxypentanoyl]amino]pyridine-2-carboxamide] | 7.1 | 120
3 | COc1cn(C(C[C@@H]2CCCCO2)C(=O)Nc2ccc(C(=O)O)s2)c(=O)cc1-c1cc(Cl)ccc1OCC(F)(F)F (stereo partly drawn) [Example 72, 5-({2-{4-[5-Chloro-2-(2,2,2-trifluoroethoxy)phenyl]-5-methoxy-2-oxopyridin-1(2H)-yl}-3-[(2S)-tetrahydro-2H-pyran-2-yl]propanoyl}amino)thiophene-2-carboxylic acid] | 1.6 | 24
4 | COc1cn(C(C[C@@H]2CCCCO2)C(=O)Nc2ccc3nc(C(=O)O)cn3c2)c(=O)cc1-c1cc(Cl)ccc1OCC(F)(F)F (stereo partly drawn) [Example 77] | 2.2 | 23

More lines, now with the values ahead:

Row | IC50 [1] [nM] | IC50 [2] [nM] | Compound
5 | 9.3 | 210 | COc1cn(C(C[C@@H]2CCCCO2)C(=O)Nc2ccc(C(N)=O)c(F)c2)c(=O)cc1-c1cc(Cl)ccc1OCC(F)(F)F (stereo partly drawn) [Example 53, 4-[(2-{4-[5-Chloro-2-(2,2,2-trifluoroethoxy)phenyl]-5-methoxy-2-oxopyridin-1(2H)-yl}-3-[(2S)-tetrahydro-2H-pyran-2-yl]propanoyl)amino]-2-fluorobenzamide]
6 | 2.2 | 150 | COc1cc(NC(=O)C(C[C@@H]2CCCCO2)n2cc(OC)c(-c3cc(Cl)ccc3OCC(F)(F)F)cc2=O)ccc1C(=O)O (stereo partly drawn) [Example 76, 4-({2-{4-[5-Chloro-2-(2,2,2-trifluoroethoxy)phenyl]-5-methoxy-2-oxopyridin-1(2H)-yl}-3-[(2S)-tetrahydro-2H-pyran-2-yl]propanoyl}amino)-2-methoxybenzoic acid]
